According to patent publication US11110126B2, “Method of expanding NK cell and composition for culturing” (Korea University Research and Business Foundation, priority 2015, dated 2021):

What was measured:
NK cells [1] = assay: Influence of ROS and/or p53 inhibitor on ex-vivo culture (expansion) of NK cells, cell number by hemocytometer; format: cell-based, human; conditions: PBMC-derived NK cells cultured 10 days, then inhibitor at three-day intervals, counted after culture for 2 weeks; apocynin 400 μM, trolox 50 μM, pifithrin-α 1 μM, combination 50 μM trolox + 500 nM pifithrin-α
Description: Human blood was prepared, and subjected to centrifugation at 2500 rpm for 30 minutes using Ficoll (Ficoll-Paque™ PLUS, GE Healthcare). Then, peripheral blood mononuclear cells were isolated from a buffy coat. Afterward, a Jurkat cell line irradiated at 100 Gy and an EBV-LCL cell line were co-cultured with PBMCs:KL-1:EBV-LCL in a ratio of 1:0.5:0.5 in hRPMI medium prepared by adding 10% FBS and 1% penicillin/streptomycin to RPMI1640 medium in the presence of 500 U/ml IL-2, and the medium was exchanged with hRPMI medium supplemented with 500 U/ml IL-2 once for 2 to 3 days. To examine the influence of an ROS inhibitor on NK cells, the NK cells were cultured for 10 days under the conditions of Preparation Example 1. Then, 400 μM of an apocynin (Calbiochem), 50 μM of trolox (Santa Cruz) and 1 μM of pifithrin-α (Santa Cruz) were treated individually, and 50 μM trolox and 500 nM pifithrin-α were treated in a combination. The inhibitor was treated at three-day intervals, and a cell number was assessed after culture for 2 weeks. Here, the medium was exchanged with hRPMI medium added with 500 U/ml of IL-2 once for three days, and a cell number was calculated using a hemocytometer.

NK cells [2] = assay: ROS generation in in vitro-expanded NK cells (DCF-DA flow cytometry); format: cell-based, human; conditions: 100 μM DCF-DA; for order of ROS generation among treated groups: rank order of groups, lowest ROS first
Description: To measure ROS generated in in vitro-expanded NK cells, NK cells cultured by treatment with an inhibitor individually or in combination were harvested. 1×10^6 cells were seeded per well in a 24-well plate, cultured in a 5% CO2 incubator for 30 minutes, and then collected. The cells were washed once with 1 ml of PBS, followed by flow cytometry using 100 μM DCF-DA. The experiment was performed on a control group which was not treated, and experimental groups treated with apocynin, trolox, pifithrin-α and trolox+pifithrin-α, respectively, and the results are shown in FIG. 9.

## COc1cc(C(C)=O)ccc1O [apocynin, 1-(4-hydroxy-3-methoxyphenyl)-ethanone]
NK cells [1]
  NK cell number compared with the control group: statistically significant increase
NK cells [2]
  order of ROS generation among treated groups: trolox<pifithrin-α<trolox+pifithrin-α<apocynin<control group

## Br.Cc1ccc(C(=O)Cn2c3c(sc2=N)CCCC3)cc1 [pifithrin-α, 2-(2-imino-4,5,6,7-tetrahydrobenzothiazol-3-yl)-1-p-tolylethanone hydrobromide]
NK cells [1]
  NK cell number compared with the control group: statistically significant increase
NK cells [2]
  order of ROS generation among treated groups: trolox<pifithrin-α<trolox+pifithrin-α<apocynin<control group

## Cc1c(C)c2c(c(C)c1O)CCC(C)(C(=O)O)O2 (stereo not shown) [trolox, 6-hydroxy-2,5,7,8-tetramethylchroman-2-carboxylic acid]
NK cells [1]
  NK cell number compared with the control group: statistically significant increase
NK cells [2]; NK cells cultured with inhibitor
  ROS generation compared with the control group: significantly decreased
NK cells [2]
  order of ROS generation among treated groups: trolox<pifithrin-α<trolox+pifithrin-α<apocynin<control group
